ChEMBL document CHEMBL5465560, “Selectivity Literature for EUbOPEN Chemogenomic Library” (2024)

How the values were obtained:
Settings in all cases: at 10 µM
[1] = biological target: T1, Serine/threonine-protein kinase DCLK2 (Homo sapiens) (UniProt Q8N568)
T1 sequence (whole entry): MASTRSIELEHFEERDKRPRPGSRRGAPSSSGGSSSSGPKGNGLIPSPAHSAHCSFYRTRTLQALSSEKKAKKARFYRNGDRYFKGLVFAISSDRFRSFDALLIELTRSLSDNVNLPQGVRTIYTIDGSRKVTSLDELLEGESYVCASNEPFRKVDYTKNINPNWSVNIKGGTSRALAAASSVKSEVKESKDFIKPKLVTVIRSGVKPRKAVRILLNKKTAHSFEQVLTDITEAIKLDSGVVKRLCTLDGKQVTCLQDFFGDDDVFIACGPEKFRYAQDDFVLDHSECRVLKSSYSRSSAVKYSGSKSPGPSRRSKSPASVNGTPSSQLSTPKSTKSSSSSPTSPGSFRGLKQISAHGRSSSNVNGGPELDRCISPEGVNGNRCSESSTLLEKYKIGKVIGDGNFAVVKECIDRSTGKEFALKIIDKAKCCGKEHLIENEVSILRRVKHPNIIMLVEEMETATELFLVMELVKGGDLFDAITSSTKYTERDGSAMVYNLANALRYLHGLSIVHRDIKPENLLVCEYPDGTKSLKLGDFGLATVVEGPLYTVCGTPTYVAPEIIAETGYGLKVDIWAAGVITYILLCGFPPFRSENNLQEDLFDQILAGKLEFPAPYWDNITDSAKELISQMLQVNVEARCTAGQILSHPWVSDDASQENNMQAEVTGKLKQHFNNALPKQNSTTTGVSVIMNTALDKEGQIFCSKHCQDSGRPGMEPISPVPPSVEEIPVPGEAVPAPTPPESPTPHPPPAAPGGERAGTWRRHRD

[2] = biological target: Bone morphogenetic protein receptor type-1B (Homo sapiens, UniProt O00238); assay: Selectivity interaction (LanthaScreen Eu Kinase Binding Assay) EUB0001632a BMPR1B
[3] = biological target: Serine/threonine-protein kinase Chk2 (Homo sapiens) (UniProt O96017)
[4] = biological target: T2, Membrane-associated tyrosine- and threonine-specific cdc2-inhibitory kinase (Homo sapiens) (UniProt Q99640); assay: Selectivity interaction (KinomeScan (DiscoverX)) EUB0000607a PKMYT1
T2 sequence (whole entry): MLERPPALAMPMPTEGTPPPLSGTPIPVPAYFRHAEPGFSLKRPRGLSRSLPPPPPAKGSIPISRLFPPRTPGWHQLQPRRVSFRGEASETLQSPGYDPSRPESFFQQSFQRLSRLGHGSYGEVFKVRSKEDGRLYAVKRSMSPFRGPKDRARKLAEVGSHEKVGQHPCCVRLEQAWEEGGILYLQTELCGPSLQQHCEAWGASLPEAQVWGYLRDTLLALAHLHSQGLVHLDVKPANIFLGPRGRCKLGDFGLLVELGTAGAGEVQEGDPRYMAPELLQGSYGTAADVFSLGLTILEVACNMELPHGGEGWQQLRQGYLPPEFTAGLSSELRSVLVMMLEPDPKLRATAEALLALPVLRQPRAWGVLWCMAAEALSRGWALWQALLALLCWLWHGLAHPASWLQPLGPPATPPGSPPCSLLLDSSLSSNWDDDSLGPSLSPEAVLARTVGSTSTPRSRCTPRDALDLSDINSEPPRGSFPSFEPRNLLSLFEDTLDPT

[5] = biological target: T3, Mitogen-activated protein kinase kinase kinase 7 (Homo sapiens) (UniProt O43318); assay: Selectivity interaction (KinomeScan (DiscoverX)) EUB0000655a MAP3K7
T3 sequence (whole entry): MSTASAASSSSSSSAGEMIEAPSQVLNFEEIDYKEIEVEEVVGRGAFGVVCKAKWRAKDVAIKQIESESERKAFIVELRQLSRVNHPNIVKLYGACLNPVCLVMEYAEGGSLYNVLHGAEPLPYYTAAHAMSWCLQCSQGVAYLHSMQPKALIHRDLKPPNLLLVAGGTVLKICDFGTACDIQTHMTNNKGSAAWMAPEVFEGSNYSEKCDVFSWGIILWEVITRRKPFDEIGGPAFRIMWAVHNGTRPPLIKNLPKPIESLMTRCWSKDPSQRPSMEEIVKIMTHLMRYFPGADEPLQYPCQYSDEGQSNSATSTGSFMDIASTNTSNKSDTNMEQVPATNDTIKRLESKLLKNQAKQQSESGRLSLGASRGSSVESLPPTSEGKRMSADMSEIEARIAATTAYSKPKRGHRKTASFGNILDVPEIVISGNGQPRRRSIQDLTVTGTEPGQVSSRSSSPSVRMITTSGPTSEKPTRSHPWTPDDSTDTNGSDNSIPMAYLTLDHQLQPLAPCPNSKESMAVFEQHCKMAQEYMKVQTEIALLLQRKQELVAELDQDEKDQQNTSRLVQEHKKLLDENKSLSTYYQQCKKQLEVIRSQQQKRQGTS

Chain of Serine/threonine-protein kinase Chk2 (Homo sapiens) (O96017 whole entry): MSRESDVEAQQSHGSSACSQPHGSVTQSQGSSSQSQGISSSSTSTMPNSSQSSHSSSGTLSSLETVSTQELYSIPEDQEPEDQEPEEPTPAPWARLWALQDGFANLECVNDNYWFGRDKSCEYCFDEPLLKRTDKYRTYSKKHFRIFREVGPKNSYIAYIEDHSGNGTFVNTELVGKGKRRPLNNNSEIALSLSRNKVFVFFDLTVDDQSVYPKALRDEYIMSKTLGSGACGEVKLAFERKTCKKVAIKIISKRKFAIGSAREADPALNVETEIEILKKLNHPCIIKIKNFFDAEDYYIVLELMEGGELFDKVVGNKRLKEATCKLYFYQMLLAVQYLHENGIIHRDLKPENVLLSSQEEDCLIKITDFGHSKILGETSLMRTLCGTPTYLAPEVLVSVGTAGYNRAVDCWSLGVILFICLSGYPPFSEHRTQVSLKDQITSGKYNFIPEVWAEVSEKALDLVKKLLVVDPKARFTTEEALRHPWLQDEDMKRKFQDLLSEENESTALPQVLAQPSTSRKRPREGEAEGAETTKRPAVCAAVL
Chain of Bone morphogenetic protein receptor type-1B (O00238 whole entry): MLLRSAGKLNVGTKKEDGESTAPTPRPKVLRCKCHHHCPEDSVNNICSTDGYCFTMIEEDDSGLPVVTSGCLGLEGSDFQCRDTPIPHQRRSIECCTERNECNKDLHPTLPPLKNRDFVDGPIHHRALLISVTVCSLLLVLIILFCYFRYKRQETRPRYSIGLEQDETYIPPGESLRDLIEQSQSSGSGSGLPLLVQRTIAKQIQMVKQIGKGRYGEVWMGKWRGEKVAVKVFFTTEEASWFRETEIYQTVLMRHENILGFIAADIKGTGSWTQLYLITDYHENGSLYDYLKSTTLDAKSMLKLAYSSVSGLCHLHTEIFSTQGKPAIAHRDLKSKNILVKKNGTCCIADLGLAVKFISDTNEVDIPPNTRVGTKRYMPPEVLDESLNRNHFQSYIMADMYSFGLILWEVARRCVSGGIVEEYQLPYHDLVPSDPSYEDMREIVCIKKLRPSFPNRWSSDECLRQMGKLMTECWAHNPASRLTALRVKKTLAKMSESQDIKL

**Q.** How did the % of control [1] turn out when `COCC(=O)NC/C=C/c1ccc2ncnc(Nc3ccc(Oc4ccc(C)nc4)c(C)c3)c2c1` [CP-724714] was run?
**A.** Its % of control is 100%.

**Q.** With `Cn1cc(-n2cnc3c(NCc4nc5cc(Cl)c(Cl)cc5[nH]4)nc(N4CCOCC4)nc32)cn1` as the molecule, how does the % of inhibition [2] read?
**A.** The % of inhibition was -57.7%.

**Q.** How did the % of control [3] turn out when `Cc1cc([C@@H](C)Nc2ccccc2C(=O)O)c2nc(N3CCOCC3)cc(=O)n2c1` [AZD-6482] was run?
**A.** Its % of control is 100%.

**Q.** With `CNC(=O)Nc1ccc(-c2nc(N3CC4CCC(C3)O4)c3cnn(C4CCC5(CC4)OCCO5)c3n2)cc1` as the molecule, how does the % of control [4] read?
**A.** The % of control was 75%.

**Q.** Which % of control [5] does the source give for `CN(C)CCOc1ccc(-c2nc(-c3ccncc3)c(-c3ccc4c(c3)CC/C4=N\O)[nH]2)cc1` here?
**A.** Its % of control is 89%.
